Test results: the NIST ThermoML archive (doi:10.1007/s10765-017-2323-6)
± gives the expanded uncertainty stated by the source.

Experiments:
[1] = Molar enthalpy of transition or fusion; conditions: Crystal; DSC
[2] = Crystal; DTA

Molar enthalpy of transition or fusion [1]: 5.9 ± 0.143 kcal/mol
Normal melting temperature [2]: 82 ± 0.6 °C
SMILES: CC(=O)CCc1ccc(O)cc1 [4-(4-hydroxyphenyl)butan-2-one]
